One substance from patent US20230151065A1, “MULTI-DISULFIDE-BOND LONG-CHAIN PEPTIDE WITH NEURO[…], PHARMACEUTICAL COMPOSITION AND APPLICATION” (priority 2018, published 2023) can be followed below.

Where no end group is shown, it is not given here.

Common to all, as to assay type: cell-based
Experiment [1] has as its system primary cultured SD fetal rat cortical neurons after OGD damage. Kind of experiment: OGD damage of cortical neurons, observation under light microscope. The note with it: OGD 2 h, 24 h reoxygenation; ABPPk2 medium-dose (40 ng/ml) and high-dose (200 ng/ml) groups vs OGD damage group. How it is done: (§1) The suspension was filtered with a 400-mesh screen, centrifuged at 1000 rpm for 5 min, and blown to form the single cell suspension. DMEM high glucose complete medium (containing 10% fetal bovine serum) was inoculated in a culture dish or culture plate pre-coated with polylysine (PLL) to culture in 5% CO2 incubator with saturated humidity at 37° C. After the cells were cultured for 4 h to adhere to the wall, the cells were cultured with neuron culture medium (neurobasal+2% B27) for 3 d to observe the growth of neurons. The culture medium containing cytarabine (the final concentration of cytarabine was 2.5 μg/ml) was substituted with half quantity to culture for 3d to inhibit the growth of glial cells and miscellaneous cells to obtain purely cultured primary cortical nerve cells. The purity of the cortical neurons was identified by immunocytochemical staining as more than 90%.
After the cortical neurons were cultured to the 7th day, the original culture medium was sucked out, and the cells were rinsed twice with sugar-free DMEM basal medium, for 5 min each time. Each OGD damage group was added with DMEM sugar-free culture medium, placed in a Billups-Rothenberg anaerobic culture chamber, filled with 95% N2/5% CO2 to balance for 15 min, and sealed for 2 h to build an OGD model. […]

Experiment [2] concerns primary fetal rat hippocampal neurons. Kind of experiment: Growth cones and neurite growth of hippocampal neurons, immunocytochemical staining. The note with it: vs negative control. The protocol: (§2) (1) Primary culture of fetal rat hippocampal neurons: after a rat pregnant for 17 days was anesthetized, a fetal rat was taken out under sterile conditions; the brain of the fetal rat was taken out on ice; the hippocampus was carefully taken out under a dissecting microscope; and the blood vessel membranes were removed. 0.125% trypsin/EDTA was digested at 37° C. for 10 min, and the digestion was stopped by adding the DMEM complete medium containing 10% FBS. Cell debris were removed through centrifugal at 1000 rpm for 5 min; the DMEM complete medium was added to resuspend the cells; the cells were gently blown until a single cell suspension was formed; and the cells were inoculated at an appropriate density on a culture plate (dish) pre-coated with polylysine (PLL) and cultured at 37° C., 5% CO2 incubator. After 4 h, the cells were adhered to the wall; the DMEM complete medium was discarded and replaced with neurobasal medium containing different concentrations of ABPPk2 (the concentrations of ABPPk2 were 4 ng/ml, 20 ng/ml and 100 ng/ml); the neurobasal medium containing 10 ng/ml BDNF was used as the positive control group, and neurobasal was used as the negative control group.
(4) The immunocytochemical staining method was used to observe the effect of ABPPk2 on the growth cones of primary fetal rat hippocampal neuron neurites. Primary hippocampal neurons were cultured according to the steps in (1), and the cells were inoculated on small round slides pre-coated with PLL at a density of 5×10^4, and then placed on a 24-well culture plate for culturing. Grouping and treatment were as described above. After 24 h, double-labeled immunocytofluorescent chemical staining of β-tubulin3 (TRITC) and F-actin (FITC) was conducted; the growth of the neurons was observed under a laser confocal microscope; and the area of the neuron growth cone and the length of filopodia were counted, as shown in FIG. 23.
(5) The immunocytochemical staining method was used to observe the effect of ABPPk2 on the growth of primary fetal rat hippocampal neuron neurites. Primary hippocampal neurons were cultured according to the steps in (1), and the cells were inoculated on small round slides pre-coated with PLL at a density of 5×10^4, and then placed on a 24-well culture plate for culturing. Grouping and treatment were as described above. […] The length of the neurites started from the axon hillock of the cell body to the top of the axon. The number of the neurites from the neuron cell bodies refers to the neurites directly connected with the cell bodies, as shown in FIG. 24.
(6) β-tubulin3 […]; the growth of the neurites was observed under the laser confocal microscope; the number of neurite branches and the proportion of the neurites with different lengths were counted; and the number of neurite branches refers to the number of branches of the neurites in a circle with a neuron cell body as the center and a radius of 100 μm.

The test system of experiment [3] is primary cultured SD fetal rat cortical neurons after OGD damage. The experiment can be described thus: OGD damage of cortical neurons, CCK-8 activity. The note with it: OGD 2 h, 24 h reoxygenation; ABPPk2 8, 40, 200 ng/ml; effect more obvious as dose increased. How it is done:
as §1
After the cortical neurons were cultured to the 7th day, the original culture medium was sucked out, and the cells were rinsed twice with sugar-free DMEM basal medium, for 5 min each time. […]
Analysis of cortical neuron activity after OGD damage and drug treatment: cortical neurons were inoculated into 96-well plates at 1×10^6 cells/ml; and 100 μl cell suspension was added to each well. […] The absorbance (OD) value of the sample in each well was measured on the microplate reader at 450 nm wavelength. […]

Experiment [4] relates to primary fetal rat hippocampal neurons. The experiment can be described thus: Growth of hippocampal neurons, label-free real time cell analysis (RTCA). The note with it: ABPPk2 4, 20, 100 ng/ml. How it is done:
as §2, with “group. […]” for “group.”

Where [5] appears, read: ABPPk2 4, 20, 100 ng/ml, 12 h as printed (24 h in method).

“Cys-Leu-Glu-Ser-Gly-Thr-Ser-Cys-Ile-Pro-Gly-Ala-Gln-His-Asn-Cys-Cys-Ser-Gly-Val-Cys-Val-Pro-Ile-Val-Thr-Ile-Phe-Tyr-Gly-Val-Cys-Tyr (CLESGTSCIPGAQHNCCSGVCVPIVTIFYGVCY; disulfide (positions not given here); not fully specified (bridges); also: three disulfide bonds, pairing not given here) [ABPPk2, 33 amino acid polypeptide isolated from the extract of Achyranthes bidentata Blume, three pairs of disulfide bonds]”: the “dead cells under light microscope” value in experiment [1] is reported as “the number of dead cells is significantly reduced”. Besides, in experiment [2] (setting [5]), the “area of the neuron growth cone” value is on record as “the area of the growth cone can be significantly increased” and the length of filopodia entry was “the length of the filopodia can be increased”. In experiment [2] (ABPPk2 for 24 h), the “length of the neurites” value is “the extension of hippocampal neuronal neurites can be significantly promoted” and the “number of the neurites from the neuron cell bodies” value is on record as “the number of the neurites from the neuron cell bodies can be significantly increased”. In addition, in experiment [2] (ABPPk2 for 48 h), the “number of neurite branches” value is listed as “increased significantly” and the “proportion of long neurite neurons” value is on record as “significantly higher than that of the negative control group”. For the same substance, in experiment [3], the “cortical neuron activity (CCK-8)” value is reported as “can effectively antagonize the decrease of cortical neuron activity caused by OGD damage”. The “growth of hippocampal neurons (cell index, RTCA)” value in experiment [4] was “can promote the growth of the hippocampal neurons and the extension of neurites”.
